pIC50: −log10 of the molar value. Structures can show the parent of a compound that is named as a salt.

Data on 17 compounds can be found in patent US20240398783A1, “Compounds and Pharmaceutical Compositions Comprising Inhibitors of Amyloid Peptide Interactions with Glycosaminoglycans, Methods of Treatment and Use Thereof” (Gismo Therapeutics, Inc., priority 2021, published 2024).

One assay addresses T1, SAA binding to purified THP-1 cell membranes (Homo sapiens, UniProt P0DJI8).
T1 sequence (P0DJI8 19-122): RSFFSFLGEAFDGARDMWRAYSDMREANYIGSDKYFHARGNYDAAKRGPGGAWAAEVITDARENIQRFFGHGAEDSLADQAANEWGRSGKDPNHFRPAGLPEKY
Kind of assay: Inhibition of SAA binding to purified cell membranes (ELISA). As to conditions: purified cell membranes (THP-1 per Example 54), hydrochloride, read-out: Serum Amyloid A/Membrane Activity (IC-50). The method, then: THP-1 (human acute monocyte leukemia cell line; ATCC cat. no. TIB-202) cell membranes were prepared by differential centrifugation as follows. THP-1 cell was grown in RPMI 1640 media (GIBCO Cat. No. 21875034, supplemented with 10% FBS) at 37 degree Celsius 5% CO2 atmosphere, harvested, and stored at −80 degree Celsius. Frozen THP-1 cells were homogenized in HEPES-Buffered sucrose (0.32M sucrose, 4 mM HEPES pH7.4, protease inhibitors) with a motor driven glass-teflon homogenizer. After removing nuclear and cell debris by centrifugation of homogenates at 1,000×g for 10 min at 4 degree Celsius, post-nuclear supernatant was centrifuged at 10,000×g for 15 minutes to remove mitochondrial fraction. Resulting supernatant was centrifuged at 100,000×g for 30 minutes to yield the crude membrane pellet. Crude membrane pellet was re-suspended in 0.32M sucrose, then centrifuged again at 100,000 xg for 30 minutes to yield washed membrane pellet. Membrane pellet was resuspended in sterile PBS (pH7.4), quickly frozen and kept in aliquots at −80 degrees Celsius. This preparation contains mostly cell membranes. Protein concentration was measured with BCA protein assay kit (Pierce Cat. No. 23227). The binding assay was performed as described in Example 48, with the following modifications. Following to coating the plates with purified human THP-1 cell membranes at 0.01 mg/ml concentration, plates were washed and blocked with 2% milk as described. The compounds were dissolved in DMSO at 10 mM final concentration and further diluted prior to assay. DMSO concentration in the screening well was up to 2%. Individual compounds were co-incubated with SAA on plates coated with cell membranes. SAA from PreProtech (NJ, USA, Cat. No. 300-53) was dissolved in DMSO, quickly frozen and kept in aliquots at −80 degrees Celsius. SAA dissolved in Tris Buffer (pH 6.5, supplemented with BSA, 0.1%) was added to the ELISA plate (100 μl per well) and incubated for 2 hours at RT with gentle shaking. Following the incubation, the plate was washed with de-ionized water and three times with TBS (pH 6.5) plus Tween. Bound SAA was detected by Anti-SAA Monoclonal Antibody (R&D System Cat. No. MAB30192, followed by secondary anti-IgG antibody conjugated to HRP (R&D System, Cat. No. HAF007). Antibody was diluted in TBS antibody buffer (pH6.5 supplemented with 1% BSA). Following each incubation with antibody, the plate was washed with de-ionized water and three times with TBS (pH6.5) wash buffer containing 0.1% Tween. Following to color development with TMB, as described in Example 49, the Optical Density of the samples was measured at 450 nm using an ELISA plate reader. Following color development, the % inhibition compared to control (no compound, DMSO control) for every compound was determined.
For each compound IC-50 value is shown in μM (micromolar). In some cases IC-50 was not measured and % inhibition at 30 μM compound concentration is shown instead. […] All assays were done on 96-well plates in duplicates and experiments were repeated at least twice. In the Table, the following abbreviations are used: A: compounds that inhibited>30% at 30 μM concentrations; B: compounds that inhibited<30% at 30 μM concentrations; NT: compounds for which inhibition curve was not obtained.
Background: An ELISA detects its analyte on a solid surface through an enzyme-linked reagent.
For the compound `C/C(=N\Nc1ncnc2cc(Cl)ccc12)c1ccc(-n2cc(C)nc2C)nc1` [Compound 27, (E)-7-chloro-4-(2-(1-(6-(2,4-dimethyl-1H-imidazol-1-yl)pyridin-3-yl)ethylidene)hydrazineyl)quinazoline hydrochloride], the pIC50 is 4.85.

Still in this assay, the particulars now being: purified cell membranes (THP-1 per Example 54), read-out: Serum Amyloid A/Membrane Activity (IC-50).
On to `Cc1cc(-n2ccnc2)ccc1/C=N/Nc1ccnc2cc(Cl)ccc12` [Compound 1, (E)-4-((E)-(4-(1H-imidazol-1-yl)-2-methylbenzylidene)hydrazono)-7-chloro-1,4-dihydroquinoline], for which the pIC50 was 4.91.

On to `C/C(=N\Nc1ncnc2cc(Cl)ccc12)c1ccc(-n2cc(C)nc2C)nc1` [Compound 18, (E)-7-chloro-4-(2-(1-(6-(2,4-dimethyl-1H-imidazol-1-yl)pyridin-3-yl)ethylidene)hydrazineyl)quinazoline phosphoric acid salt], for which the pIC50 was 4.62.

Take `C/C(=N\Nc1ncnc2cc(F)ccc12)c1ccc(-n2cnc(C)c2C)nc1` [Compound 21, (E)-4-(2-(1-(6-(4,5-dimethyl-1H-imidazol-1-yl)pyridin-3-yl)ethylidene)hydrazineyl)-7-fluoroquinazoline]: the pIC50 was 4.32.

As for `C/C(=N\Nc1nncc2cc(Cl)ccc12)c1ccc(-n2cc(C)nc2C)nc1` [Compound 24, (E)-6-chloro-1-(2-(1-(6-(2,4-dimethyl-1H-imidazol-1-yl)pyridin-3-yl)ethylidene)hydrazineyl)phthalazine], the pIC50 was 5.09.

Take `CC(=NNc1ncnc2cc(Cl)ccc12)c1ccnc(-n2cnc(C)c2C)c1` [Compound 28, 7-chloro-4-(2-(1-(2-(4,5-dimethyl-1H-imidazol-1-yl)pyridin-4-yl)ethylidene)hydrazineyl)quinazoline]: the pIC50 is 4.64.

As to `Clc1ccc2c(Nc3ccc(-n4ccnc4)nc3)ncnc2c1` [Compound 41, N-(6-(1H-imidazol-1-yl)pyridin-3-yl)-7-chloroquinazolin-4-amine], the pIC50 is 4.88.

Still in this assay, the particulars now being: read-out: Serum Amyloid A/Membrane Activity (IC-50), purified cell membranes (THP-1 per Example 54).
`COc1cc2nccc(N/N=C/c3ccc(-n4ccnc4)c(OC)c3)c2cc1OC` [Compound 13, (E)-4-(2-(4-(1H-imidazol-1-yl)-3-methoxybenzylidene)hydrazineyl)-6,7-dimethoxyquinoline phosphate]: the pIC50 was 4.35.

`Clc1ccc2c(N/N=C/c3ccc(-n4ccnc4)nc3)ccnc2c1` [Compound 14, (E)-4-(2-((6-(1H-imidazol-1-yl)pyridin-3-yl)methylene)hydrazineyl)-7-chloroquinoline hydrochloride]: the pIC50 is 4.56.

For `Cc1ncn(-c2ccc(/C=N\Nc3ncnc4cc(Cl)ccc34)cn2)c1C` [Compound 15, 7-chloro-4-(2-((6-(4,5-dimethyl-1H-imidazol-1-yl)pyridin-3-yl)methylene)hydrazineyl)quinazoline hydrochloride], the pIC50 is 4.49.

Regarding `C/C(=N\Nc1ncnc2cc(Cl)ccc12)c1ccc(-n2cnc(C)c2C)nc1` [Compound 16, 7-chloro-4-(2-(1-(6-(4,5-dimethyl-1H-imidazol-1-yl)pyridin-3-yl)ethylidene)hydrazineyl)quinazoline phosphate], the pIC50 was 5.00.

In the case of `Cc1ncn(-c2ccc(Nc3ncnc4cc(Cl)ccc34)cn2)c1C` [Compound 25, 7-chloro-N-(6-(4,5-dimethyl-1H-imidazol-1-yl)pyridin-3-yl)quinazolin-4-amine], the pIC50 is 4.66.

Regarding `COc1cc(Nc2nncc3cc(Cl)ccc23)cnc1-n1cnc(C)c1C` [Compound 31, 6-chloro-N-(6-(4,5-dimethyl-1H-imidazol-1-yl)-5-methoxypyridin-3-yl)phthalazin-1-amine phosphoric acid salt], the pIC50 is 4.15.

As to `Clc1ccc2c(Nc3ccc(-n4cncn4)nc3)ncnc2c1` [Compound 34, N-(6-(1H-1,2,4-triazol-1-yl)pyridin-3-yl)-7-chloroquinazolin-4-amine phosphoric acid salt], the pIC50 was 5.06.

`CC(=NNc1ccnc2cc(Cl)ccc12)c1ccc(-n2ccnc2)cc1` [Compound 36, 4-(2-(1-(4-(1H-imidazol-1-yl)phenyl)ethylidene)hydrazineyl)-7-chloroquinoline phosphate]: the pIC50 is 4.82.

With `Clc1ccc2c(N/N=C/c3ccc(-n4ccnc4)cc3)ccnc2c1` [Compound 38, 4-(2-(4-(1H-imidazol-1-yl)benzylidene)hydrazineyl)-7-chloroquinoline dihydrochloride], the pIC50 is 4.63.

For the compound `Clc1ccc2c(Nc3ccc(-n4cncn4)nc3)ccnc2c1` [Compound 44, N-(6-(1H-1,2,4-triazol-1-yl)pyridin-3-yl)-7-chloroquinolin-4-amine], the pIC50 is 4.94.
